Reference: BindingDB's records for doi:10.1016/j.bmcl.2003.08.078 (University of Florida, 2003)

Target: Melanocortin receptor 4 (Mus musculus, UniProt P56450)
Assay: ChEBML_104255
From the text: Agonistic activity evaluated at melanocortin 4 receptor (MC4R) of mouse HEK293 cells

Sequence of Melanocortin receptor 4 (P56450 whole entry): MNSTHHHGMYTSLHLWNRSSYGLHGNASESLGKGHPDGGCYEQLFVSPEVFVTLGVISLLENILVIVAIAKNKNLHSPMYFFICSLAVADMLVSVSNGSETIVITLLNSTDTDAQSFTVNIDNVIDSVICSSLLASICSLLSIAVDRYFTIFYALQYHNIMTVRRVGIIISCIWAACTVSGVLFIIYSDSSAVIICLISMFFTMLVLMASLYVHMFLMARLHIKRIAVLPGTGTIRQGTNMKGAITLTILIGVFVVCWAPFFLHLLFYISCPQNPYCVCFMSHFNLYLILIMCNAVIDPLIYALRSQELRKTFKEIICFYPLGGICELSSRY

EC50: 17 nM
Compound: CC(=O)N[C@@H](Cc1cnc[nH]1)C(=O)N[C@H](Cc1ccccc1)C(=O)N[C@@H](CCCN=C(N)N)C(=O)N[C@@H](Cc1c[nH]c2ccccc12)C(N)=O [(S)-2-{(R)-2-[(S)-2-Acetylamino-3-(1H-imidazol-4-yl)-propionylamino]-3-phenyl-propionylamino}-5-guanidino-pentanoic acid [(S)-1-carbamoyl-2-(1H-indol-3-yl)-ethyl]-amide]
